From patent US20100016335A1, “NOVEL AMINOPYRIDINE DERIVATIVES HAVING AURORA A SELECTIVE INHIBITORY ACTION” (priority 2006, published 2010)
Where a name gives a salt, the structure may show the parent alone. Read-outs that look alike come from different tables or passages of the source.

Experiments:
[1] = test system: Human cervical cancer cells (HeLa S3); assay: Cell growth inhibitory effect, WST-8 method; assay type: cell-based; details: Homo sapiens, 72 h; HeLa S3, three days incubation; read-out: Cell growth inhibitory effect (HeLaS3) (IC50)
Protocol: Fetal calf serum (FCS) was purchased from Moregate Biotech, and DMEM medium was purchased from Invitrogen Corp. WST-8 was purchased from Kishida Chemical Co., Ltd.
(§1) Human cervical cancer cells (HeLa S3) were obtained from the American Type Culture Collection (ATCC).
Cells were suspended in a DMEM medium containing 10% FCS, and the cell suspension was dispensed to a 96-well plastic plate at a rate of 750 cells/100 microliters per well. The plate was incubated overnight in 5% CO2-95% air at 37° C. A drug was subjected to graded dilution in dimethylsulfoxide and further diluted with a DMEM medium containing 10% FCS. Then, the dilution was dispensed to the plate on which cells had been disseminated in advance, at a rate of 100 microliters per well. The plate was incubated for further three days in 5% CO2-95% air at 37° C. Cell growth after incubation was measured by the WST-8 method (H. Tominaga, et al., Anal. Commun., 36, 47-50 (1999)). Here, the WST-8 method refers to a method in which 20 microliters of a WST-8 reagent solution is added to each well, incubation is conducted at 37° C. for 60 minutes, the plate is stirred, and the amount of formazan produced is measured by a […] method to determine the inhibitory rate of the drug.

human Aurora A = target: T1, human Aurora A (Homo sapiens, UniProt O14965); assay: Aurora A inhibitory activity (IMAP fluorescence polarization phosphorylation assay); assay type: biochemical; details: 20 μM ATP, 30° C., 120 minutes
T1 construct: His (N); made in house; host or cells: Escherichia coli BL21-CodonPlus(DE3)-RIL
T1 sequence (O14965 1-403): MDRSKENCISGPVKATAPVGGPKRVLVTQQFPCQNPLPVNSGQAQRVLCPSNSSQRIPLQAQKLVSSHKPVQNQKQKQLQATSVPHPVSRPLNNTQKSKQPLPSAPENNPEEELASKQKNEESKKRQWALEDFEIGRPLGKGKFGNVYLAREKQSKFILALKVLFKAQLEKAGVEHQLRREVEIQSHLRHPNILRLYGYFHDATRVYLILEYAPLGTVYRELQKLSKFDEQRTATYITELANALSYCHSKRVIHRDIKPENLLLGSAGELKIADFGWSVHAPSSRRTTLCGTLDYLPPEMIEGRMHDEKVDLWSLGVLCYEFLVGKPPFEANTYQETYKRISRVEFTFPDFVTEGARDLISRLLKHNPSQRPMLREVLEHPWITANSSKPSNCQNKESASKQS
Excerpt: cDNA of N-terminal His-tagged human Aurora A was integrated into an expression vector, which was then highly expressed in Escherichia coli BL21-CodonPlus(DE3)-RIL cells. The Escherichia coli was harvested and lysed, and then the His-tagged human Aurora A protein was applied onto a nickel chelate column and eluted from the column with imidazole. The active fractions were desalted with a desalting column to give a purified enzyme.
For the phosphorylation reaction, the method by Upstate, Inc. [Kinase Profiler™ Assay Protocols] was referred to, and phosphorylation of the substrate was detected using IMAP® technology (Molecular Devices, Co. Ltd.) (Gaudet E W. et. al, J. Biomol. Screen, 8, 164-175 (2003)). Concretely, the phosphorylation reaction and the detection were carried out as follows:
The phosphorylation reaction was conducted using 384 well plate, and the reaction volume was 10 μl/well. The reaction buffer is comprised of 50 mM Tris-chloride buffer (pH 7.4), 15 mM magnesium acetate, and 0.2 mM ethylenediamine-N,N,N′,N′-tetraacetic acid (EDTA). Thereto, the purified Aurora A protein, 100 nM of the peptide substrate, and 20 μM of adenosine 5′-triphosphate (ATP) were added, and then the reaction was carried out at 30° C. for 120 minutes.
Thereafter, in order to terminate and detect the reaction, 30 μl of the IMAP (registered trademark) binding reagent (IMAP Progressive Binding Reagent, R7284) that had been diluted (1:400) in the 1×IMAP binding buffer A (IMAP Progressive Binding Buffer A, 5× stock, R7282) was added to each well. The solution stood still for 60 minutes in the dark, and then fluorescence polarization was measured using a high-end microplate reader (excitation wavelength: 485 nm; emission wavelength: 520 nm).
(§2) The compound to be tested was added to the reaction system such that a dilution series of the compound in dimethylsulfoxide (DMSO) was prepared, and then 0.5 μL of this solution was added for the testing to each well. Each control well was provided by adding 0.5 μL of DMSO to the well in place of the DMSO solution containing the compound to be tested.

[2] = target: T2, GST-tagged human Aurora B(AurB)/His-tagged human INCENP complex proteins (Homo sapiens, UniProt Q96GD4); assay: Aurora B inhibitory activity (Method A, IMAP assay kit); assay type: biochemical; details: 40 μM ATP, 25° C., 45 minutes
T2 construct: GST; purchased Carna Biosciences, Inc
T2 sequence (Q96GD4 whole entry): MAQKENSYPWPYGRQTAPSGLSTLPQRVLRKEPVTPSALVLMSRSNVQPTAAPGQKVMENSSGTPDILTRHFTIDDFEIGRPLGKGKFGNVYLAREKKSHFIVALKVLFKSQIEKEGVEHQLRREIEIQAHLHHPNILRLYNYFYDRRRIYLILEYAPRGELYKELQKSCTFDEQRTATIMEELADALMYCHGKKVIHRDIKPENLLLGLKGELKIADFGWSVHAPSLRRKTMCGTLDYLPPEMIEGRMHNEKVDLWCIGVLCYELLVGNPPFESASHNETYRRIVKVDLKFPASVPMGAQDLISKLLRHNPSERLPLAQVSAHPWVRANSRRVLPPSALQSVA
T2 sequence (Q9NQS7 803-916 partner limits assumed): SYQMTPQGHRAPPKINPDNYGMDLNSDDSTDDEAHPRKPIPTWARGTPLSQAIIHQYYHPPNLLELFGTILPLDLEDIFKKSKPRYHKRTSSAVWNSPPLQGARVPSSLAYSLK
Protocol: An assay development kit for IMAP (registered trademark) (Aurora B), purchased from Carna Biosciences, Inc., was used for phosphorylation reaction, and the phosphorylation of a substrate was detected using the IMAP technology. […] Using the same, the phosphorylation reaction was conducted in accordance with a partially revised protocol attached to the kit, and then the phosphorylation of the substrate was detected using the IMAP technology.
For the phosphorylation reaction, 384 well plate was used, and the reaction volume was 10 μl/well. The composition of the reaction buffer (assay buffer) is comprised of 20 mM of HEPES buffer (pH 7.4), 0.01% Tween-20, and 2 mM of dithiothreitol (DTT). Thereto, AurB/INCENP complex protein, 100 nM of the substrate, and 40 μM of ATP, and 1 mM of magnesium salt were added, and then the reaction was conducted at 25° C. for 45 minutes. Thereafter, in order to terminate and detect the reaction, 30 μl of the IMAP (registered trademark) binding reagent (IMAP Progressive Binding Reagent, R7284) that had been diluted (1:400) in the 1× IMAP binding buffer A (IMAP Progressive Binding Buffer A, 5× stock, R7282) was added to each well.
as §2, with “DMSO” for “dimethylsulfoxide (DMSO)”

[3] = test system: Human cervical cancer cells (HeLa S3); assay: Effect by combined use of drugs in cells (docetaxel), WST-8 method; assay type: cell-based; details: HeLa S3, three days; for inhibition at 0.3 µM: compound 0.3 μM alone; for inhibition at 1 µM: compound 1.0 μM alone
Protocol: Fetal calf serum (FCS) was purchased from Moregate Biotech, DMEM medium from Invitrogen Corp., docetaxel (tradename: Taxere) from Sigma-Aldrich, Inc., and WST-8 from Kishida Chemical Co., Ltd.
as §1
Cells were suspended in a DMEM medium containing 10% FCS, and the cell suspension was dispensed to two 96-well plastic plates at a rate of 750 cells/100 microliters per well. The plates were incubated overnight in 5% CO2-95% air at 37° C. A drug was subjected to graded dilution in dimethylsulfoxide and further diluted with DMSO or with a DMEM medium containing 10% FCS and also containing 0.6 nM docetaxel. Then, the dilutions were each dispensed to one of the plates on which cells had been disseminated in advance, at a rate of 100 microliters per well. The final concentration of docetaxel at this stage was 0.3 nM. Also, the concentrations in the case of sole administration of the compound according to the invention were 0.003, 0.01, 0.03, 0.1, 0.3, 1, 3 and 10 μM. The plates were incubated for further three days in 5% CO2-95% air at 37° C. Cell growth after incubation was measured by the WST-8 method (H. Tominaga, et al., Anal. Commun., 36, 47-50 (1999)). Here, the WST-8 method refers to a method in which 20 microliters of a WST-8 reagent solution is added to each well, incubation is conducted at 37° C. for 60 minutes, the plate is stirred, and the amount of formazan produced is measured by a colorimetric method to determine the inhibitory rate of the drug. The growth inhibitory effects of docetaxel and of the compound according to the invention were determined, with the value obtained in sole treatment of DMSO being defined as 0%.

[4] = Homo sapiens, HeLa S3, 72 h, read-out: Cell growth inhibitory effect by sole administration of the compound of Example (%)
[5] = compound 0.3 μM + docetaxel 0.3 nM
[6] = compound 1.0 μM + docetaxel 0.3 nM

Row | IC50 [1] [nM] | IC50 (human Aurora A) [nM] | IC50 [2] [nM] | Compound | inhibition at 0.3 µM [3, 4] [%] | inhibition at 1 µM [3, 4] [%] | Cell growth inhibitory effect by combined administration of docetaxel and the compound of Example (%) [3, 5] [%] | Cell growth inhibitory effect by combined administration of docetaxel and the compound of Example (%) [3, 6] [%] | inhibition at 0.1 µM ([3]; Homo sapiens, HeLa S3, 72 h, compound 0.1 μM alone, read-out: Cell growth inhibitory effect by sole administration of the compound of Example (%)) [%] | Cell growth inhibitory effect by combined administration of docetaxel and the compound of Example (%) ([3]; compound 0.1 μM + docetaxel 0.3 nM) | inhibition at 0.3 µM ([3]; Homo sapiens, 72 h, read-out: Cell growth inhibitory effect by sole administration of the compound of Example (%)) [%]
1 | 1260 | 0.54 | 150 | NC(=O)[C@]1(Cc2cccc(Nc3nccs3)n2)CC[C@@H](Oc2cccc(Cl)c2F)CC1 [Example 8, trans-4-(3-chloro-2-fluorophenoxy)-1-((6-(1,3-thiazol-2-ylamino)pyridin-2-yl)methyl)cyclohexanecarboxamide] | 12.2 | 49 | 84.6 | 95.0 |  |  | 
2 | 760 | 0.39 | 490 | O=c1[nH]nc([C@]2(Cc3cccc(Nc4cc[nH]n4)n3)CC[C@@H](Oc3cccc(Cl)c3F)CC2)o1 [Example 23, 5-(trans-4-(3-chloro-2-fluorophenoxy)-1-((6-(1H-pyrazol-3-ylamino)pyridin-2-yl)methyl)cyclohexyl)-1,3,4-oxadiazol-2(3H)-one] | 36 |  | 87.4 |  | 3.7 | 71.5 | 
3 | 900 | 1 | 660 | O=c1[nH]nc([C@]2(Cc3cccc(Nc4cc[nH]n4)n3)CC[C@@H](Oc3cccc(C(F)(F)F)c3F)CC2)o1 [Example 20, 5-(trans-4-(2-fluoro-3-(trifluoromethyl)phenoxy)-1-((6-(1H-pyrazol-3-ylamino)pyridin-2-yl)methyl)cyclohexyl)-1,3,4-oxadiazol-2(3H)-one] | 25.9 | 49.8 | 85.0 | 94.4 |  |  | 
4 | 1760 | 2 | 870 | NC(=O)[C@]1(Cc2cncc(Nc3cc[nH]n3)n2)CC[C@@H](Oc2cccc(Cl)c2F)CC1 [Example 15, trans-4-(3-chloro-2-fluorophenoxy)-1-((6-(1H-pyrazol-3-ylamino)pyrazin-2-yl)methyl)cyclohexanecarboxamide] | 17 | 42.4 | 76.4 | 90.8 |  |  | 
5 | 3950 | 0.12 | 59 | Cl.O=C(O)[C@]1(Cc2cccc(Nc3nccs3)n2)CC[C@@H](Oc2cccc(F)c2F)CC1 [Example 3, trans-4-(2,3-difluorophenoxy)-1-((6-(1,3-thiazol-2-ylamino)pyridin-2-yl)methyl)cyclohexanecarboxylic acid hydrochloride] | 5.4 | 26.9 | 74.1 | 90.4 |  |  | 
6 | 2220 | 0.13 | 210 | O=C(O)[C@]1(Cc2cccc(Nc3cc[nH]n3)n2)CC[C@@H](Sc2cccc(Cl)c2Cl)CC1 [Example 33, trans-4-((2,3-dichlorophenyl)thio)-1-((6-(1H-pyrazol-3-ylamino)pyridin-2-yl)methyl)cyclohexanecarboxylic acid trifluoroacetate] | 0.3 | 23.4 | 75.5 | 91.3 |  |  | 

Row | Compound | IC50 [1] [nM] | IC50 (human Aurora A) [nM] | IC50 [2] [nM] | inhibition at 0.3 µM [3, 4] [%] | inhibition at 1 µM [3, 4] [%] | Cell growth inhibitory effect by combined administration of docetaxel and the compound of Example (%) [3, 5] [%] | Cell growth inhibitory effect by combined administration of docetaxel and the compound of Example (%) [3, 6] [%] | inhibition at 0.1 µM ([3]; Homo sapiens, HeLa S3, 72 h, compound 0.1 μM alone, read-out: Cell growth inhibitory effect by sole administration of the compound of Example (%)) [%] | Cell growth inhibitory effect by combined administration of docetaxel and the compound of Example (%) ([3]; compound 0.1 μM + docetaxel 0.3 nM) | inhibition at 0.3 µM ([3]; Homo sapiens, 72 h, read-out: Cell growth inhibitory effect by sole administration of the compound of Example (%)) [%]
7 | Cl.O=C(O)[C@]1(Cc2cccc(Nc3nccs3)n2)CC[C@@H](Oc2cccc(Cl)c2F)CC1 [Example 1, trans-4-(3-chloro-2-fluorophenoxy)-1-((6-(1,3-thiazol-2-ylamino)pyridin-2-yl)methyl)cyclohexanecarboxylic acid hydrochloride] | 1970 |  |  |  |  | 84.7 |  |  |  | 4.4
